Data on one compound can be found in patent publication US6271247A, “Hydrazide compounds” (Adir et Compagnie, priority 1998, dated 2001).

The IC50 is the point on the concentration scale where inhibition reaches its midpoint. Read a low IC50 as inhibition by little substance.

Assay [1] concerns obese ob/ob mouse. As to the kind of experiment: Effect on food intake and weight development in the obese ob/ob mouse. The format is in vivo, mouse (female ob/ob C57B1/6J). The following applies: 5 mg/kg IP, twice daily. The protocol: The compounds of the invention were administered in vivo to the obese ob/ob mouse in order to evaluate their influence on food intake and weight development. The animals used are 13- to 18-week-old female ob/ob C57B1/6J mice. They are divided into groups each comprising 4 animals per cage, the cages being fitted with a grating floor, and the mice having free access to food.
Before the experiments, the animals are conditioned for a period ranging from 2 to 3 weeks until their food consumption has stabilised. The experiments may be summarised as follows:
D -14 to D -7: conditioning
D -7 to D -3: measurement of the basal food intake
D0 to D +3: animals treated twice daily, the control groups being given the carrier D0 to D +4: daily measurement of food intake and body weight
The test products are dissolved, immediately before use, in water, 0.9% sodium chloride, propylene glycol or dimethyl sulphoxide, depending upon their solubility, and are administered intraperitoneally (IP), in a volume of 2.5 ml/kg.
The parameters measured are the weight of the feed troughs containing the food and the body weight.
The results are expressed as: percentage variation in food intake under treatment compared with the basal food intake; percentage variation in body weight between the first and last day of treatment.

Assay [2] addresses T1, Y5 receptor (Homo sapiens, UniProt Q15761).
T1 construct: host or cells: unnamed cell line expressing the Y5 sub-type
T1 sequence (Q15761 1-445): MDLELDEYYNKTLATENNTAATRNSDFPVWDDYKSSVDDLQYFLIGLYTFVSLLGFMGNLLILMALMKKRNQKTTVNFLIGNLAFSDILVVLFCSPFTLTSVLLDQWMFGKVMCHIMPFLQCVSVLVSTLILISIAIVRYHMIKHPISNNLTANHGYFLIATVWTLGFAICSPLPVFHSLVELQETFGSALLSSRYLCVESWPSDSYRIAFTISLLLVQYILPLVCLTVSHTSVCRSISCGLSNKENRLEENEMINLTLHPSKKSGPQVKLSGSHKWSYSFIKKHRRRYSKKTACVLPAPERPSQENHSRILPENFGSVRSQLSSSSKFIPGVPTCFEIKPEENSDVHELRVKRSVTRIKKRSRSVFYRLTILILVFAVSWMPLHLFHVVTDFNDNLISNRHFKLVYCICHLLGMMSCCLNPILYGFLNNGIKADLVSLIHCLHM
In words: In vitro affinity for NPY receptors, competition binding with [125I]-PYY on cell line expressing the Y5 sub-type. To be noted: radioligand [125I]-PYY 15 to 65 pM. The protocol: The capacity of the compounds of the invention to bind to NPY receptors was measured on various cell lines, each expressing one of the receptor sub-types studied. Competition binding experiments were carried out using the peptide [^125 I]-PYY as radioligand at concentrations ranging from 15 to 65 pM. The non-specific fraction is measured in the presence of a concentration of 1 μM NPY. The cells are incubated for a period ranging from 1 to 2 hours depending upon the lines, and the radioactivity is collected after filtration over a GF/C filter treated with 0.1% PEI, before being measured.
The results are expressed as IC50.

The structures appear in SMILES notation.

As to `O=C(NNC(=O)C1CCC(CNS(=O)(=O)c2ccc3ccccc3c2)CC1)c1ccccc1` (stereo not drawn) [Example 44, N2-({4-[(2-Benzoylhydrazino)carbonyl]cyclohexyl}methyl)-2-naphthalenesulphonamide], the “Food intake % variation (D1), Treated (compared with the basal food intake)” value in assay [1] (D1, control -25.3) is listed as -75.2%. The “Body weight % variation (D4/D0)” value in assay [1] (D4/D0) is -6.0%. In assay [2], the IC50 was determined as 14.5 nM.
